Data from patent US20110294722A1, “ANTIMICROBIAL PEPTIDES” (priority 2008, published 2011).
Read-outs that look alike come from different tables or passages of the source. No end group written: not given here.

Experiments:
Format in all cases: cell-based
[1] = test system: Pseudomonas corrugata; conditions: Pseudomonas corrugata; for MIC (>90% inhibition): 1-2 days at 25° C.; for LC (lethal concentration, 100% inhibition): at least 4 days of incubation
Protocol: (§1) In-vitro inhibition assays were performed in sterile flat-bottom 96-well plates (Greiner bio-one, Frickenhausen). Antimicrobial peptides were dissolved in 0.01% acetic acid containing 0.2% BSA (500 μg/ml), filter sterilized and stored at −20° C. For inhibition assays dilutions of peptides ranging from 5 to 200 μg/ml were prepared and 10 μl (antibacterial assay) or 20 (antifungal assay) of each concentration was loaded per well.
(§2) Bacteria colonies from overnight agar plate cultures were resuspended into 5 ml LB-medium or HPG-medium (OD600 nm=0.08-0.1) and diluted into LB-medium/HPG-medium (1:100). 90 μl of this suspension containing about 10^5-10^6 CFU/ml of tested bacteria were added to each well resulting in final peptide concentrations of 0, 0.5, 1, 2, 5, 10, and 20 μg/ml. […] The lowest concentration, in which there is no observable growth (>90% inhibition) is referred to as minimal inhibitory concentration (MIC). […] For each peptide concentration two identical inhibition assays were performed.

[2] = test system: Pectobacterium carotovorum; conditions: Pectobacterium carotovorum; for MIC (>90% inhibition): 1-2 days at 25° C.; for LC (lethal concentration, 100% inhibition): at least 4 days of incubation
Protocol: as §1, §2

[3] = test system: Pseudomonas syringae pv. tomato; conditions: for LC (lethal concentration, 100% inhibition): at least 4 days of incubation
Protocol: as §1, §2

[4] = test system: Pseudomonas syringae pv. syringae; conditions: Pseudomonas syringae pv. syringae; for MIC (>90% inhibition): 1-2 days at 25° C.; for LC (lethal concentration, 100% inhibition): at least 4 days of incubation
Protocol: as §1, §2

[5] = test system: Clavibacter michiganensis; test: In-vitro inhibition assay (MIC and LC), Example 3; conditions: for MIC (>90% inhibition): 1-2 days at 25° C.; for LC (lethal concentration, 100% inhibition): at least 4 days of incubation
Protocol: as §1, §2

[6] = test system: Xanthomonas vesicatoria; test: In-vitro inhibition assay (MIC and LC), Example 3; conditions: for MIC (>90% inhibition): 1-2 days at 25° C.; for LC (lethal concentration, 100% inhibition): at least 4 days of incubation
Protocol: as §1, §2

[7] = Pseudomonas syringae pv. tomato, 1-2 days at 25° C.
[8] = Pseudomonas syringae pv. tomato

Substance | MIC (>90% inhibition) [1] | LC (lethal concentration, 100% inhibition) [1] | MIC (>90% inhibition) [2] | LC (lethal concentration, 100% inhibition) [2] | MIC (>90% inhibition) [3, 7] | LC (lethal concentration, 100% inhibition) [3, 8] | MIC (>90% inhibition) [4] [µg/mL] | LC (lethal concentration, 100% inhibition) [4] [µg/mL] | MIC (>90% inhibition) [5] | LC (lethal concentration, 100% inhibition) [5] | MIC (>90% inhibition) [6] | LC (lethal concentration, 100% inhibition) [6] | MIC (>90% inhibition) [3]
KRKKLLKRLI-NH2 [SP1-16] | 0.5 µg/mL | 1.0 µg/mL | >10/>10 μg/ml | >10/>10 μg/ml | 1.0/1.0 μg/ml | 1.0/1.0 μg/ml | 0.1 | 2.5 | >10/>10 μg/ml | >10/>10 μg/ml | 10/>10 μg/ml | 10/>10 μg/ml | 
RKKKIKIIKKII-NH2 [SP1-9] | 5.0/5.0 μg/ml | 5.0/5.0 μg/ml | >10/>10 μg/ml | >10/>10 μg/ml | 5.0 µg/mL | 10 µg/mL | 0.5 | 1.0 | 2.5 µg/mL | 10 µg/mL | 2.5/2.5 μg/ml | 2.5/2.5 μg/ml | 
RKKKLKIIKRLI-NH2 [SP1-7] | 0.5 µg/mL | 2.5 µg/mL | >10/>10 μg/ml | >10/>10 μg/ml |  | 10/10 μg/ml | 0.1 | 0.25 | 2.5/2.5 μg/ml | 2.5/2.5 μg/ml | 1.0/1.0 μg/ml | 1.0/1.0 μg/ml | 10/10 μg/ml
RKKKFKFFKRLF-NH2 [SP1-12] | 0.25 µg/mL | 0.5 µg/mL | >10/>10 μg/ml | >10/>10 μg/ml | >10/>10 μg/ml | >10/>10 μg/ml | 0.1 | 0.5 | 0.5/0.5 μg/ml | 0.5/0.5 μg/ml | 0.5 µg/mL | 2.5 µg/mL | 
RKKKLKFFKRLF-NH2 [Sp1-11] | 0.25 µg/mL | 1.0 µg/mL | >10/>10 μg/ml | >10/>10 μg/ml | >10/>10 μg/ml | >10/>10 μg/ml | 1.0 | 2.5 | 2.5 µg/mL | 5.0 µg/mL | 2.5 µg/mL | 10 µg/mL | 
RKKRKKLLKRLL-NH2 [SP1-18] | 0.25 µg/mL | 0.5 µg/mL | >10/>10 μg/ml | >10/>10 μg/ml | 1.0 µg/mL | 0.5 µg/mL | 0.1 | 5.0 | 5.0/5.0 μg/ml | 5.0/5.0 μg/ml | 5.0 µg/mL | 10 µg/mL | 
RKKRLKVVKRLV-NH2 [SP1-4] | >10/>10 μg/ml | >10/>10 μg/ml | >10/>10 μg/ml | >10/>10 μg/ml | 2.5 µg/mL | > 10 µg/mL | 5.0 | > 10 | >10/>10 μg/ml | >10/>10 μg/ml | >10/>10 μg/ml | >10/>10 μg/ml | 
